Laboratory results: US10626100B2, “Selective HDAC6 inhibitors” (The Trustees of Columbia University in the City of New York, priority 2013, dated 2020)
Entries after “also recorded” stand apart in the source; their conditions may differ.

Tests used:
HDAC1 = HDAC1 (Homo sapiens, UniProt Q13547); test: Inhibition of recombinant HDAC1; assay type: biochemical; settings: read-out: IC50 (nM) HCAC1
[1] = system: acetylated alpha-tubulin and acetylated histone H3 in LNCaP (human prostate cancer cells); test: Accumulation of acetylated proteins in LNCaP cells (western blot); assay type: cell-based
Experimental: FIG. 2. Blot showing accumulation of acetylated alpha-tubulin and acetylated histone H3 in LNCaP (human prostate cancer cells) cultured with compounds 8 or 11. GADPH used as loading control.
(§1) FIG. 5. Western blots of acetylated alpha-tubulin (Acet-Tub) and acetylated histone H3 (Acet-H3) in HFS (normal) and LNCaP (transformed) cells treated with compound 8 at 8, 16, 32, and 64 μM for 24 h. Western blots of GAPDH and total histone H3 (Total-H3) are loading controls.
(§2) Recombinant HDAC1 and HDAC6 are used to evaluate the selective inhibitory potency of each compound. Cell based assays: Normal cells (Human Foreskin Fibroblast cells), LNCaP (human prostate cancer cells), MCF-7 (human breast cancer cells, A549 (human adenocarcinoma of lung cells) and ARP-1 (human multiple myeloma cells) are used in these assays. Cells were cultured for up to 72 hr without and with the potential HDAC6-selective inhibitor. SAHA was used as a control. Cell number and cell viability were determined by enumeration. Proteins were extracted from cells and assayed for accumulation of acetylated tubulin and acetylated histones. All methods are described in Namdar et al., PNAS, 2010, 107:20003-8. In vivo animal studies: Potential HDAC6 inhibitor compounds are further assayed by administration to mice for up to 5 days with daily injections. Animals are sacrificed and tissues are analyzed for accumulation of acetylated tubulin and acetylated histones.

[2] = system: acetylated alpha-tubulin and acetylated histone H3 in HFS (human foreskin fibroblast) cells; test: Accumulation of acetylated proteins in HFS normal cells (western blot); assay type: cell-based
Experimental: as §1, §2

[3] = system: LNCaP (human prostate adenocarcinoma) cells; test: Cell growth and viability of LNCaP cells; assay type: cell-based
Experimental: (§3) FIG. 3. Cell growth of HFS (normal) and LNCaP (transformed) cells treated with compound 8 over 72 h.
(§4) FIG. 4. Cell viability of HFS (normal) and LNCaP (transformed) cells treated with compound 8 over 72 h.
as §2
(§5) The effect of compound 8 on the cell growth and viability of normal (HFS, human foreskin fibroblast) and transformed (LNCaP, human prostate adenocarcinoma) cells cultured with 8, 16, 32 or 64 μM HPB for up to 72 h was evaluated.

[4] = system: HFS (human foreskin fibroblast) cells; test: Cell growth and viability of HFS normal cells; assay type: cell-based
Experimental: as §3, §4, §2, §5

Mouse toxicity study = assay type: in vivo; settings: mice, intraperitoneal, daily for 5 days, 100, 200, or 300 mg/kg
Experimental: FIG. 6. Average weight of immune-deficient mice treated daily by 30 μL intraperitoneal injection with indicated doses of compound 8. DMSO is the vehicle control.
(§6) Toxicity of compound 8 in mice was determined. […] Mice were intraperitoneally injected daily for 5 days with 100, 200, or 300 mg/kg compound 8. […] The effects of compound 8 on the acetylation of alpha-tubulin and histones in the spleen isolated from mice treated with compound 8 were analyzed at three time points after the administration of the drug.

[5] = system: acetylated alpha-tubulin and acetylated histone H3 in spleen; test: Acetylation of alpha-tubulin and histones in spleen of treated mice; assay type: in vivo
Experimental: FIG. 7. Immunoblots of spleens harvested at indicated times after the last injection. Immune-deficient mice were treated daily by 30 μL intraperitoneal injection with indicated doses of compound 8. DMSO is the vehicle control. Western blots of acetylated alpha-tubulin (Acet-Tub) and acetylated histone H3 (Acet-H3). Western blots of HSP90 and total histone H3 (Total-H3) are loading controls.
as §2, §6

[6] = system: LNCaP (transformed) cells; test: Combination with anti-cancer agents in LNCaP cells; assay type: cell-based
HFS (normal) cells = test: Combination with anti-cancer agents in HFS cells; assay type: cell-based, human; settings: compound 8 alone or in combination with etoposide, paclitaxel, or SAHA, 72 h
[7] = system: androgen-dependent CWR22 human prostate cancer xenograft; test: CWR22 human prostate cancer xenograft in nude mice; assay type: in vivo
[8] = system: acetylated alpha-tubulin and histones in CWR22 tumors and spleen; test: Acetylated lysine patterns in CWR22 tumors and spleen; assay type: in vivo, nude mice
From the text: Tumors and spleen are removed from the animals, and histones and proteins are extracted for the detection of acetylated lysine patterns.

[9] = system: acetylated alpha-tubulin and acetylated histone H3 in LNCaP (human prostate cancer cells); test: Accumulation of acetylated proteins in LNCaP cells (western blot); assay type: cell-based; settings: transformed cells, concentrations as high as 16 μM
[10] = LNCaP cells, 8 μM to 64 μM, 24 h, FIG. 5
[11] = transformed cells, concentrations as high as 16 μM
[12] = HFS cells, 8 μM to 64 μM, 24 h, FIG. 5
[13] = normal cells, concentrations as high as 16 μM
[14] = 21 days, daily 300 mg/kg compound 8 or weekly 3 mg/kg etoposide alone

HDAC1, sequence (Q13547 whole entry): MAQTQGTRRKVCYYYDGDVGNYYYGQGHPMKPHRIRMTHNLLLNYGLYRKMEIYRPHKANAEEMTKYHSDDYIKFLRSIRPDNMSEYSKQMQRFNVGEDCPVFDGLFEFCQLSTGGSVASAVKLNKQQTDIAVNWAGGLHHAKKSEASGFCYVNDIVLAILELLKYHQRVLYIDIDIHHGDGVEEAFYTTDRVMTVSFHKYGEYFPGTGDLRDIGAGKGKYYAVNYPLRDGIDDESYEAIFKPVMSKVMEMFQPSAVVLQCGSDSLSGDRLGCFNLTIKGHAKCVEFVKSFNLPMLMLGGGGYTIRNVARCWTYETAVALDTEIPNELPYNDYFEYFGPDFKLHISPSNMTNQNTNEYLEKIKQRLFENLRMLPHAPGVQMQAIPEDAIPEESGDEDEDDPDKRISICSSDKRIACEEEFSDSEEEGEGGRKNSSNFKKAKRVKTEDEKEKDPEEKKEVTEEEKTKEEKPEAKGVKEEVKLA

## O=C(NO)c1ccc(CN(CCO)C(=O)Cc2ccccc2)cc1 [Compound 8, N-hydroxy-4-((N-(2-hydroxyethyl)-2-phenylacetamido)methyl) benzamide]
HDAC1
  IC50: 1130 nM
[1]; [10]
  accumulation of acetylated alpha-tubulin: caused accumulation of acetylated alpha-tubulin
  accumulation of acetylated histones: not of acetylated histones
[1]; LNCaP cells, FIG. 2
  accumulation of acetylated histones (H3): did not cause accumulation of actylated histones; also recorded: without induction of H3 acetylation
  accumulation of acetylated α-tubulin: caused the accumulation of acetylated α-tubulin; also recorded: significant levels of tubulin acylation were present
[1]; [11]
  accumulation of acetylated alpha-tubulin: selectively induced accumulation of acetylated alpha-tubulin and acetylated PRX
  accumulation of acetylated histones: not of acetylated histones
[2]; [12]
  accumulation of acetylated alpha-tubulin: caused accumulation of acetylated alpha-tubulin
  accumulation of acetylated histones: not of acetylated histones
[2]; [13]
  accumulation of acetylated PRX: selectively induced accumulation of acetylated alpha-tubulin and acetylated PRX
  accumulation of acetylated alpha-tubulin: selectively induced accumulation of acetylated alpha-tubulin and acetylated PRX
  accumulation of acetylated histones: not of acetylated histones
[3]; LNCaP, 8, 16, 32 or 64 μM, up to 72 h, FIG. 3
  cell growth (cell number): inhibited cell growth of normal and transformed cells in a concentration dependent manner; also recorded: inhibited cell number
[3]; LNCaP, 8, 16, 32 or 64 μM, up to 72 h, FIG. 4
  cell death / cell viability: did not induce cell death of normal or transformed cells; also recorded: does not decrease cell viability
[3]; concentrations as high as 32 μM
  death of LNCaP cells: no detectable death of LNCaP cells
[4]; HFS, 8, 16, 32 or 64 μM, up to 72 h, FIG. 3
  cell growth: inhibited cell growth of normal and transformed cells in a concentration dependent manner
[4]; HFS, 8, 16, 32 or 64 μM, up to 72 h, FIG. 4
  cell death / cell viability: did not induce cell death of normal or transformed cells
[4]; concentrations ≤16 μM
  normal cell death: do not induce normal cell death
Mouse toxicity study
  tolerability in animals: well tolerated
Mouse toxicity study; FIG. 6
  weight loss: no weight loss
[5]; 1.5 h after injection, FIG. 7
  accumulation of acetylated tubulin in the spleen: increased accumulation of acetylated tubulin
[5]; 5 h after injection
  accumulation of acetylated tubulin in the spleen: reduced to the level seen in vehicle-treated controls
[5]; FIG. 7
  accumulation of acetylated histones in the spleen: no detectable accumulation of acetylated histones
[6]; LNCaP, 50 μM etoposide and 16 μM compound 8, 72 h, versus etoposide alone
  cell growth and cell viability in combination with etoposide: inhibition in cell growth and loss of cell viability to a greater extent than LNCaP cells cultured with etoposide alone; also recorded: enhances etoposide or SAHA-induced transformed cell death
[6]; LNCaP, compound 8 and 5 μM SAHA, 72 h, versus SAHA alone
  cell death in combination with SAHA: cell death is enhanced; also recorded: enhances etoposide or SAHA-induced transformed cell death
[6]; LNCaP, paclitaxel and compound 8, 72 h, versus either drug alone
  cell death in combination with paclitaxel: increases cell death
[6]; transformed cells, induction of apoptosis and accumulation of DNA damage
  cytotoxicity of anti-cancer drugs in transformed cells cultured with compound 8: enhances the cytotoxicity of anti-cancer drugs
HFS (normal) cells
  cell growth: inhibits cell growth
  cell viability: does not induce loss of cell viability
[7]; [14]
  growth of established CWR22 tumors, single agent: no significant suppression of the growth
  weight loss, single agent: no weight loss
[7]; daily compound 8 and weekly etoposide, versus vehicle-treated control animals
  growth of established CWR22 tumors, combination with etoposide: causes suppression of the growth of established CWR22 tumors; also recorded: significantly enhances the anti-tumor effect of etoposide
[8]; combination of compound 8 and etoposide
  accumulation of acetylated alpha-tubulin in CWR22 tumors and spleen, combination with etoposide: increased accumulation of acetylated alpha-tubulin
[8]; combination of etoposide and compound 8
  accumulation of histones in tumors, combination with etoposide: Increased levels of accumulation of histones
[8]; mice injected with compound 8 alone or etoposide
  accumulation of histones in tumors, single agent: not with compound 8 alone
[8]; mice treated with compound 8 or etoposide
  accumulation of acetylated alpha-tubulin in CWR22 tumors and spleen, single agent: increased accumulation of acetylated alpha-tubulin
[9]
  accumulation of acetylated PRX: selectively induced accumulation of acetylated alpha-tubulin and acetylated PRX
